Reference: ChEMBL document CHEMBL4364241, “Developments in the anticancer activity of structurally modified curcumin: An up-to-date review” (Eur J Med Chem, 2019)

Legend:
GES1 = assay: Cytotoxicity against human GES-1 cells; type: functional, cell-based
MGC-803 [1] = assay: Cytotoxicity against human MGC803 cells; type: functional, cell-based
BGC-823 [2] = assay: Cytotoxicity against human BGC823 cells; type: functional, cell-based
SGC-7901 [3] = assay: Cytotoxicity against human SGC7901 cells; type: functional, cell-based
SK-OV-3 [4] = assay: Cytotoxicity against human SKOV3 Cells after 24 hrs by MTT assay; type: functional, cell-based; conditions: SK-OV-3, 24 h
Bcap37 = assay: Cytotoxicity against human Bcap37 cells; type: functional, cell-based
PC-3 [5] = assay: Cytotoxicity against human PC3 cells; type: functional, cell-based
HeLa [6] = assay: Anticancer activity against human HeLa cells; type: functional, cell-based
[7] = Cytotoxicity against human GBM1 Cells 48 hrs by MTS assay; type: functional; conditions: GBM1, 48 h
CT26 = assay: Cytotoxicity against mouse CT26 cells; type: functional, cell-based
DU-145 = assay: Anticancer activity against human DU145 cells; type: functional, cell-based
U373 MG = assay: Cytotoxicity against human U373MG Cells 48 hrs by MTS assay; type: functional, cell-based, U-373MG ATCC
U-87 MG = assay: Cytotoxicity against human U87MG Cells 48 hrs by MTS assay; type: functional, cell-based, U-87MG ATCC
MCF7 [8] = assay: Cytotoxicity against human MCF7 cells; type: functional, cell-based
MCF7 [9] = assay: Induction of apoptosis in human MCF7 cells; type: functional, cell-based
SMMC-7721 = assay: Anticancer activity against human SMMC7721 cells after 72 hrs by MTT assay; type: functional, cell-based; conditions: SMMC-7721, 72 h
Caco-2 = assay: Cytotoxicity against human Caco2 Cells after 72 hrs by MTT assay; type: functional, cell-based; conditions: Caco-2, 72 h
AGS [10] = assay: Cytotoxicity against human AGS Cells; type: functional, cell-based
U-251 = assay: Cytotoxicity against human U251MG cells after 48 hrs by MTS assay; type: functional, cell-based; conditions: U-251, 48 h
NCI-H1299 = assay: Cytotoxicity against human H1299 cells; type: functional, cell-based
HepG2 [11] = assay: Cytotoxicity against human HepG2 Cells; type: functional, cell-based
[12] = Cytotoxicity against human GBM4 Cells 48 hrs by MTS assay; type: functional
BGC-823 [13] = assay: Antiproliferative activity against human BGC823 cells after 24 hrs by MTT assay; type: functional, cell-based; conditions: BGC-823, 24 h
[14] = Cytotoxicity against human GBM6 Cells 48 hrs by MTS assay; type: functional; conditions: GBM6, 48 h
SW-620 = assay: Cytotoxicity against human SW620 Cells; type: functional, cell-based
[15] = Cytotoxicity against human GBM5 Cells 48 hrs by MTS assay; type: functional
NIH3T3 = assay: Cytotoxicity against mouse 3T3 Cells after 48 hrs by MTT assay; type: functional, cell-based; conditions: NIH3T3, 48 h
HT-29 [16] = assay: Cytotoxicity against human HT-29 Cells after 72 hrs by MTT assay; type: functional, cell-based; conditions: HT-29, 72 h
HCT-116 [17] = assay: Cytotoxicity against human HCT116 Cells; type: functional, cell-based
EA.hy 926 = assay: Cytotoxicity against human EAhy926 Cells after 72 hrs by MTT assay; type: functional, cell-based; conditions: EA.hy 926, 72 h
MGC-803 [18] = assay: Antiproliferative activity against human MGC803 cells after 24 hrs by MTT assay; type: functional, cell-based; conditions: MGC-803, 24 h
A549 [19] = assay: Cytotoxicity against human A549 Cells by MTT assay; type: functional, cell-based
KBM5 = assay: Growth inhibition of human KBM5 cells relative to control; type: functional
AGS [20] = assay: Cytotoxicity against human AGS Cells by MTT assay; type: functional, cell-based
MCF7 [21] = assay: Cytotoxicity against human MCF7 Cells after 48 hrs by MTT assay; type: functional, cell-based; conditions: MCF7, 48 h
HL-60 = assay: Cytotoxicity against human HL60 cells; type: functional, cell-based
L02 [22] = assay: Cytotoxicity against human HL-7702 cells; type: functional, cell-based
HepG2 [23] = assay: Cytotoxicity against human HepG2 Cells after 72 hrs by MTT assay; type: functional, cell-based; conditions: HepG2, 72 h
A549 [24] = assay: Cytotoxicity against human A549 Cells after 24 to 48 hrs by MTT assay; type: functional, cell-based
K562 [25] = assay: Cytotoxicity against human K562 Cells after 24 to 48 hrs by MTT assay; type: functional, cell-based
[26] = Cytotoxicity against human GBM3 Cells 48 hrs by MTS assay; type: functional; conditions: GBM3, 48 h
[27] = Cytotoxicity against human LX2 Cells after 48 hrs by MTT assay; type: functional; conditions: LX-2, 48 h
[28] = Anticancer activity against human LX2 cells after 72 hrs by MTT assay; type: functional, cell-based; conditions: LX-2, 72 h
[29] = Cytotoxicity against human CCD-1059SK Cells after 48 hrs by MTS assay; type: functional
BXPC-3 = assay: Cytotoxicity against human BxPC3 cells; type: functional, cell-based
MCF7 [30] = assay: Cytotoxicity against human MCF7 Cells after 48 hrs by MTS assay; type: functional, cell-based; conditions: MCF7, 48 h
SGC-7901 [31] = assay: Antiproliferative activity against human SGC7901 cells after 24 hrs by MTT assay; type: functional, cell-based; conditions: SGC-7901, 24 h
SK-OV-3 [32] = assay: Cytotoxicity against human SKOV3 Cells after 48 hrs by Cell Titer Blue assay; type: functional, cell-based; conditions: SK-OV-3, 48 h
HT-29 [33] = assay: Cytotoxicity against human HT-29 Cells; type: functional, cell-based
[34] = Cytotoxicity against human GBM2 Cells 48 hrs by MTS assay; type: functional; conditions: GBM2, 48 h
HSC-3 = assay: Cytotoxicity against human HSC3 cells; type: functional, cell-based
A549 [35] = assay: Cytotoxicity against human A549 Cells after 24 hrs by MTT assay; type: functional, cell-based; conditions: A549, 24 h
PC-3 [36] = assay: Anticancer activity against human PC3 cells; type: functional, cell-based
SW480 = assay: Cytotoxicity against human SW480 Cells after 24 to 48 hrs by MTT assay; type: functional, cell-based
MDA-MB-231 [37] = assay: Cytotoxicity against human MDA-MB-231 cells; type: functional, cell-based
HEp-2 = assay: Cytotoxicity against human Hep2 Cells; type: functional, cell-based
HCT-116 [38] = assay: Growth inhibition of human HCT116 cells relative to control; type: functional
CHO-K1 = assay: Cytotoxicity against […] Cells after 72 hrs by MTT assay; type: functional, cell-based; conditions: Cricetulus griseus, CHO-K1, 72 h
MDA-MB-231 [39] = assay: Anticancer activity against human MDA-MB-231 cells after 72 hrs by MTT assay; type: functional, cell-based; conditions: MDA-MB-231, 72 h
[40] = Cytotoxicity against mitoxantrone resistant […] cells expressing BCRP after 15 mins by fluorescence assay; type: functional, cell-based; conditions: Canis lupus familiaris, MDCK2, 0.25 h
HSC-2 = assay: Cytotoxicity against human HSC2 cells; type: functional, cell-based
HepG2 [41] = assay: Cytotoxicity against human HepG2 Cells after 48 hrs by MTT assay; type: functional, cell-based; conditions: HepG2, 48 h
HSC-4 = assay: Cytotoxicity against human HSC4 cells; type: functional, cell-based
RWPE-1 = assay: Cytotoxicity against human RWPE1 cells; type: functional, cell-based
HeLa [42] = assay: Cytotoxicity against human HeLa Cells; type: functional, cell-based
K562 [43] = assay: Antiproliferative activity against human K562 Cells; type: functional, cell-based
HepG2 [44] = assay: Cytotoxicity against human HepG2 Cells by MTT/Trypan Blue Exclusion Assay; type: functional, cell-based
L02 [45] = assay: Cytotoxicity against human LO2 Cells; type: functional, cell-based
THP-1 = assay: Cytotoxicity against human THP1 Cells; type: functional, cell-based

COc1ccc(OC)c(/C=C2\CC/C(=C\c3ccc(O)c(OC)c3)C2=O)c1
IC50 (GES1): 27.3 µM
IC50 (MGC-803 [1]): 13.3 µM
IC50 (BGC-823 [2]): 4.7 µM
IC50 (SGC-7901 [3]): 3.9 µM

COc1cc(/C=C/C2=NN(c3nc(/N=C4/CC[C@H]5[C@@H]6CC[C@H]7C[C@@H](OC(C)=O)CC[C@]7(C)[C@H]6CC[C@]45C)cc(=O)[nH]3)C(/C=C/c3cc(OC)cc(OC)c3)C2)cc(OC)c1 (some centres not stated)
IC50 (SK-OV-3 [4]): 2.5 µM

Cc1ccc2ncnc(Oc3ccccc3/C=C/C(=O)/C=C/c3c(Cl)cccc3Cl)c2c1
IC50 (Bcap37): 4.98 µM
IC50 (MGC-803 [1]): 0.85 µM
IC50 (PC-3 [5]): 1.37 µM

COc1cc(/C=C/C(=O)CC(=O)/C=C/c2ccc(O)c(OC)c2)ccc1O [CURCUMIN]
IC50 (HeLa [6]): 4.33 µM
IC50 [7]: 39.6 µM
IC50 (CT26): > 20 µM
IC50 (DU-145): 31.7 µM
IC50 (U373 MG): > 50 µM
IC50 (U-87 MG): 7.15 µM
IC50 (MCF7 [8]): 22.5 µM
IC50 (MCF7 [9]): 17.1 µM
IC50 (SMMC-7721): 12.6 µM
IC50 (Caco-2): 28 µM
IC50 (AGS [10]): 9.77 µM
IC50 (U-251): 15.3 µM
IC50 (NCI-H1299): 18.9 µM
IC50 (HepG2 [11]): 36.8 µM
IC50 [12]: > 50 µM
IC50 (BGC-823 [13]): > 20 µM
IC50 [14]: > 50 µM
IC50 (GES1): 29.1 µM
IC50 (SW-620): > 50 µM
IC50 [15]: > 50 µM
IC50 (NIH3T3): 9.51 µM
IC50 (HT-29 [16]): 23.4 µM
IC50 (HCT-116 [17]): 5.51 to 20 µM
IC50 (EA.hy 926): 20 µM
IC50 (MGC-803 [18]): > 20 µM
IC50 (A549 [19]): 25.3 µM
IC50 (MGC-803 [1]): 21.2 µM
growth inhibition (GI) (KBM5): 46%
IC50 (AGS [20]): 20.8 µM
IC50 (MCF7 [21]): 9.28 µM
IC50 (HL-60): 6.3 µM
IC50 (L02 [22]): 32.3 µM
IC50 (HepG2 [23]): 20.3 to 24.9 µM
IC50 (BGC-823 [2]): 17.5 µM
IC50 (A549 [24]): 28 to 30 µM
IC50 (K562 [25]): 36 to 38 µM
IC50 (SGC-7901 [3]): 22.5 µM
IC50 [26]: > 50 µM
IC50 [27]: 9.14 µM
IC50 [28]: 14 µM
IC50 [29]: 133 µM
IC50 (BXPC-3): 18.2 µM
IC50 (MCF7 [30]): 68.2 µM
IC50 (SGC-7901 [31]): > 20 µM
IC50 (SK-OV-3 [32]): 6.7 µM
IC50 (HT-29 [33]): 18.7 to 66.9 µM
IC50 [34]: > 50 µM
IC50 (HSC-3): 11 µM
IC50 (A549 [35]): 52.3 µM
IC50 (PC-3 [36]): 20.9 µM
IC50 (SW480): 15 to 17 µM
IC50 (MDA-MB-231 [37]): 26.5 µM
IC50 (HEp-2): 21.4 µM
IC50 (PC-3 [5]): 20 µM
growth inhibition (GI) (HCT-116 [38]): 46.87%
IC50 (CHO-K1): 21.3 µM
IC50 (MDA-MB-231 [39]): 11.5 µM
IC50 [40]: 32 µM
IC50 (HSC-2): 7.8 µM
IC50 (HepG2 [41]): 9.44 µM
IC50 (HSC-4): 7.1 µM
IC50 (RWPE-1): 15.6 µM
IC50 (HeLa [42]): 14 to 22.2 µM

COc1cccc2c1C(=O)c1c(O)c3c(c(O)c1C2=O)C[C@@](O)(C(=O)CO)C[C@@H]3O[C@H]1C[C@H](N)[C@H](O)[C@H](C)O1 [DOXORUBICIN]
IC50 (HepG2 [11]): 0.57 µM
IC50 (K562 [43]): 1.42 µM
IC50 (HepG2 [44]): 14.7 µM
IC50 (L02 [45]): 6.93 µM
IC50 (THP-1): 0.3 µM
IC50 (HeLa [42]): 2.02 µM
